The source of these data is ChEMBL document CHEMBL5247683 (ACS Med Chem Lett, 2023).

Bounds are passed on as bounds.

Series [1] has as its target Tyrosine-protein kinase JAK1 (Homo sapiens, UniProt P23458). As to the kind of experiment: Inhibition of GST-fused JAK1 (866 to 1154 residues) (unknown origin) using FITC-AhxKKSRGDYMTMQIG-NH2 peptide as substrate incubated for 60 mins in presence of ATP by Janus kinase assay.
Series [2] addresses T1, JAK3/JAK1 (Homo sapiens, UniProt P23458+P52333). Nature of the series: Inhibition of JAK1/JAK3 in human M07E cells assessed as reduction of IL-15 stimulated STAT phosphorylation preincubated for 30 mins followed by IL-15 stimulation for 15 mins by flow cytometry method. The series is classed as cell-based. (In general: Flow cytometry measures light scatter and fluorescence of single cells or particles in a stream.)

For series [3], the target named is JAK1/TYK2 (Homo sapiens, UniProt P23458+P29597). Nature of the series: Inhibition of JAK1/TYK2 in human M07E cells assessed as reduction of IFN alpha stimulated STAT phosphorylation preincubated for 30 mins followed by IFN alpha stimulation for 15 mins by flow cytometry method. The series is classed as cell-based.
Chain of JAK1/TYK2 (P23458 whole entry, the tested form may be a part): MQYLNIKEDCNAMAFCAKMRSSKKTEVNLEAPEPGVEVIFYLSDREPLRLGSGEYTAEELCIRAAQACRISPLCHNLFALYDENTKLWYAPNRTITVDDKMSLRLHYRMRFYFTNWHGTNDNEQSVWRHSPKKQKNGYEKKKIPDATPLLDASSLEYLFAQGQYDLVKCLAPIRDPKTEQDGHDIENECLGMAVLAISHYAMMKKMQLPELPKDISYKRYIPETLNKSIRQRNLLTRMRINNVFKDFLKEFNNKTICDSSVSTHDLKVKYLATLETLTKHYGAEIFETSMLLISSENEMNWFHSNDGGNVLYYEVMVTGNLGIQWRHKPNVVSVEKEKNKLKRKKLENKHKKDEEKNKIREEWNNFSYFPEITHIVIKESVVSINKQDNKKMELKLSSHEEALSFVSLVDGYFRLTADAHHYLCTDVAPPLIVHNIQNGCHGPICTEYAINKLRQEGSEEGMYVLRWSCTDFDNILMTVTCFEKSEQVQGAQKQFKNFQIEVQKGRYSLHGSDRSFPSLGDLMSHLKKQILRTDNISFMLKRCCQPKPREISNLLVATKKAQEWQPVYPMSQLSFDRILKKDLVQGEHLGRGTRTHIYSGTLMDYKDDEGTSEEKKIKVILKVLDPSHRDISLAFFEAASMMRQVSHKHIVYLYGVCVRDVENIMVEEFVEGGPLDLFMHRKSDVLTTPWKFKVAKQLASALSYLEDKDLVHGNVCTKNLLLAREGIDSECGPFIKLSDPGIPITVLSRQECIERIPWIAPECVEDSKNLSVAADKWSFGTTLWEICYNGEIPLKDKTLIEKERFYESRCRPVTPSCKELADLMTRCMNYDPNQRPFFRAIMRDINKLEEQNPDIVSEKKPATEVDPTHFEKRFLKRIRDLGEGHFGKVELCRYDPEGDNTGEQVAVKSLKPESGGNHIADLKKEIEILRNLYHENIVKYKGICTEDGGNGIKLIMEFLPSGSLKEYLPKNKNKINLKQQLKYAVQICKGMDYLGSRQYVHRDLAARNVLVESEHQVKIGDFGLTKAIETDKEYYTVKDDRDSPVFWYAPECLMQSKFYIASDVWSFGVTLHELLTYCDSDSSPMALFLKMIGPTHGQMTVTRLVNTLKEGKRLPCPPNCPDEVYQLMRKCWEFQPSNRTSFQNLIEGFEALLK
Chain of JAK1/TYK2 (P29597 whole entry, the tested form may be a part): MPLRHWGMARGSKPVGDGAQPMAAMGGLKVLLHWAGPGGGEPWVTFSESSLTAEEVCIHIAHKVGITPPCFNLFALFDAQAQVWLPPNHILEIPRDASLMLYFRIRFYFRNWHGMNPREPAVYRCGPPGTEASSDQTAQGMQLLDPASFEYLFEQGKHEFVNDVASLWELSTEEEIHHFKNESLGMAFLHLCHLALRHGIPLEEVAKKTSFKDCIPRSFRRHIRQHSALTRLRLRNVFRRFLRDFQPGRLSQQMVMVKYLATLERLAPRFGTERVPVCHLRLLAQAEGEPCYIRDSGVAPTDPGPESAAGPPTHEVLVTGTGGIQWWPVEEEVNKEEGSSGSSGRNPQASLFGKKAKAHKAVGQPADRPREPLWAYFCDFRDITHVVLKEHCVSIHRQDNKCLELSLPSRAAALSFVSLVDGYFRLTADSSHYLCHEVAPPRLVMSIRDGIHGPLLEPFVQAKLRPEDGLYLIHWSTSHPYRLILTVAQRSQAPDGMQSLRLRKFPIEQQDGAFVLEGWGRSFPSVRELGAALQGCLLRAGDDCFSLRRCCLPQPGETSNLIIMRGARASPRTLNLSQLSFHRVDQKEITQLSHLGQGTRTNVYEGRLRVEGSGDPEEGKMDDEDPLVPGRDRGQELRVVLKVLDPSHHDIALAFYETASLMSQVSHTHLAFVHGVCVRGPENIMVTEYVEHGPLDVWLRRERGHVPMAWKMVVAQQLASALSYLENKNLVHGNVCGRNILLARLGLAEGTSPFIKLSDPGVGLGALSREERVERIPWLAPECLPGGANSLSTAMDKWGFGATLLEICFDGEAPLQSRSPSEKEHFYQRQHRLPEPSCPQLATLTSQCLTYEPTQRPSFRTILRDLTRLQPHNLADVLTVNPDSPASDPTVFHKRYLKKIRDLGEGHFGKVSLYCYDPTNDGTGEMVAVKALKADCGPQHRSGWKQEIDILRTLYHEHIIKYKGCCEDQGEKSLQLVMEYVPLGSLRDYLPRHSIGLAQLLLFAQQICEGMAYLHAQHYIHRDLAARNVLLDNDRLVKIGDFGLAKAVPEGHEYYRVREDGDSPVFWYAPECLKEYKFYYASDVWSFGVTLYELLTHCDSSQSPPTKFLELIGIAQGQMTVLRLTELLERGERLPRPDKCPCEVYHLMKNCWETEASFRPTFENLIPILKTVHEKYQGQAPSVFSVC
The target in series [4] is Tyrosine-protein kinase JAK2 (Homo sapiens, UniProt O60674). As to the kind of experiment: Inhibition of GST-fused JAK2 (808 to 1132 residues) (unknown origin) using Carboxyfluorescein-Ahx-GGEEEEYFELVKKKK peptide as substrate incubated for 60 mins in presence of ATP by Janus kinase assay.
Chain of Tyrosine-protein kinase JAK2 (O60674 whole entry, the tested form may be a part): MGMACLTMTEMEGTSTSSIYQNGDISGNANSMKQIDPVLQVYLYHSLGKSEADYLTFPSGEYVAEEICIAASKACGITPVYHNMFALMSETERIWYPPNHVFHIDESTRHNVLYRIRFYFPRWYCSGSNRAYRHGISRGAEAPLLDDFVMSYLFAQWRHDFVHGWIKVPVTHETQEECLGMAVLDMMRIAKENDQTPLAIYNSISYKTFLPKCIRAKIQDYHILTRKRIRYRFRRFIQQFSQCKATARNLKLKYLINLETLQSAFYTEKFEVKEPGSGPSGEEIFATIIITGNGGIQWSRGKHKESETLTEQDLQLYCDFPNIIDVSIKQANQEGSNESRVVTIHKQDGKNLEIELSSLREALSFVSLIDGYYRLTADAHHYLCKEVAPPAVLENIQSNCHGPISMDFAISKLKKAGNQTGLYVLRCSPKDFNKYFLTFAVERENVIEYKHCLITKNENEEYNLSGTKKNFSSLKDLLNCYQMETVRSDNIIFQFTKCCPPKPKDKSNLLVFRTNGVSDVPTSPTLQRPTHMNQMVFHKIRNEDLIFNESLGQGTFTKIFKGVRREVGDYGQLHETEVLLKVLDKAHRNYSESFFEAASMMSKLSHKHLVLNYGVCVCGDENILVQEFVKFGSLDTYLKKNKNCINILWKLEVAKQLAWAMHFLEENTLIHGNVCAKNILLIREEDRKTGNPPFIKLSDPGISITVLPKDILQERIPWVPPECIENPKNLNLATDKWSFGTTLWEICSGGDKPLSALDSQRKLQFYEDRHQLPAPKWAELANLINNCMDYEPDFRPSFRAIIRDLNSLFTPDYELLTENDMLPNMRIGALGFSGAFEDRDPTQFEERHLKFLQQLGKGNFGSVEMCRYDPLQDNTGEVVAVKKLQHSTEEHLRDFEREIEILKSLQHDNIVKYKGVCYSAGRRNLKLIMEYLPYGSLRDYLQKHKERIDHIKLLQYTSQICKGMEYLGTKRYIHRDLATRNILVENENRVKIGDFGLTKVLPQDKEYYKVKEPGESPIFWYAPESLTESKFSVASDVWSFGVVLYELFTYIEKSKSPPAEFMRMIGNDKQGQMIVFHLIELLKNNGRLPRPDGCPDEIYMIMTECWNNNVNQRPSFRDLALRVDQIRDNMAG
Series [5] concerns the target T2, Tyrosine-protein kinase JAK3 (Homo sapiens, UniProt P52333).
T2 sequence (P52333 whole entry): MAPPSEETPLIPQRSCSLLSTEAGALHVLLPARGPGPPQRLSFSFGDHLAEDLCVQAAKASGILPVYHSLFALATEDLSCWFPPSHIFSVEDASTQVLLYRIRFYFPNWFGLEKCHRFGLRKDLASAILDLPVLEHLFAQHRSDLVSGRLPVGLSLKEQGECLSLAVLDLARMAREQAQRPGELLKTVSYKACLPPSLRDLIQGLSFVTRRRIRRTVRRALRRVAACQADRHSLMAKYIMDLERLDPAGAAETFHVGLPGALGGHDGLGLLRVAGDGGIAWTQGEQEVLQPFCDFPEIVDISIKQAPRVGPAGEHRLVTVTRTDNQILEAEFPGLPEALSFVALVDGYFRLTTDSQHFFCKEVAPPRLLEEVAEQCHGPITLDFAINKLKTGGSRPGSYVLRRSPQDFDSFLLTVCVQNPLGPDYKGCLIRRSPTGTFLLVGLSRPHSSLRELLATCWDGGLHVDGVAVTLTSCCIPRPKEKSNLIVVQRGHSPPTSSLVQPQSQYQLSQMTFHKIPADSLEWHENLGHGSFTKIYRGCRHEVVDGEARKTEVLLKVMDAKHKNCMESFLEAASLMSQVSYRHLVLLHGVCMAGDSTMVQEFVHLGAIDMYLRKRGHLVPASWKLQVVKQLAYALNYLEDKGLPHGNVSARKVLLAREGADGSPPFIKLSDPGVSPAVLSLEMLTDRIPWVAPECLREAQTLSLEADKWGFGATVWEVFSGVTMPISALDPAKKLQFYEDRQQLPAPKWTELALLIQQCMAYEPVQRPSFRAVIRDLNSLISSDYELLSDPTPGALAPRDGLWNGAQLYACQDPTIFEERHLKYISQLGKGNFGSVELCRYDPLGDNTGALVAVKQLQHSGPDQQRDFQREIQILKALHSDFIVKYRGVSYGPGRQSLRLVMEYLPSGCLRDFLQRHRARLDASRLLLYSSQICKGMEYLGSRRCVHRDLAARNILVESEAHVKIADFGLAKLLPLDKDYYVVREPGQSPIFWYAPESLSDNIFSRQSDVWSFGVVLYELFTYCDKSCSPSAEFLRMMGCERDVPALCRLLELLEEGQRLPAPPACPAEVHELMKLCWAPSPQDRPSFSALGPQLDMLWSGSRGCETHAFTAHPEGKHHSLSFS
Nature of the series: Inhibition of GST-fused JAK3 (811 to 1124 residues) (unknown origin) using Carboxyfluorescein-Ahx-GGEEEEYFELVKKKK peptide as substrate incubated for 60 mins in presence of ATP by Janus kinase assay.

The target in series [6] is Non-receptor tyrosine-protein kinase TYK2 (Homo sapiens, UniProt P29597). Nature of the series: Inhibition of GST-fused Tyk2 (888 to 1187 residues) (unknown origin) using FITC-AhxKKSRGDYMTMQIG-NH2 peptide as substrate incubated for 60 mins in presence of ATP by Janus kinase assay.
Chain of Non-receptor tyrosine-protein kinase TYK2 (P29597 whole entry, the tested form may be a part): as the sequence (P29597 whole entry, the tested form may be a part) above
Series [7] concerns the target T1, JAK3/JAK1. In kind it is tissue-based, Blood.
Description: Inhibition of JAK1/JAK3 in human blood assessed as reduction of IL-2 stimulated STAT phosphorylation preincubated for 30 mins followed by IL-2 stimulation for 15 mins by flow cytometry method
Series [8] can be described thus: in vitro. To be noted: human, liver microsomes. On the technique in general: Liver microsomes are a subcellular fraction often used to study metabolism.
Description: Intrinsic clearance in human liver microsomes
Series [9] is described as follows: Dissociation constant, pKa of compound. In kind it is physicochemical.
Series [10] has as its target Glycogen synthase kinase-3 beta (Homo sapiens, UniProt P49841). Nature of the series: Inhibition of GSK3B (unknown origin).
In series [11] the target is T3, Aurora kinase A (Homo sapiens, UniProt O14965).
T3 sequence (O14965 whole entry): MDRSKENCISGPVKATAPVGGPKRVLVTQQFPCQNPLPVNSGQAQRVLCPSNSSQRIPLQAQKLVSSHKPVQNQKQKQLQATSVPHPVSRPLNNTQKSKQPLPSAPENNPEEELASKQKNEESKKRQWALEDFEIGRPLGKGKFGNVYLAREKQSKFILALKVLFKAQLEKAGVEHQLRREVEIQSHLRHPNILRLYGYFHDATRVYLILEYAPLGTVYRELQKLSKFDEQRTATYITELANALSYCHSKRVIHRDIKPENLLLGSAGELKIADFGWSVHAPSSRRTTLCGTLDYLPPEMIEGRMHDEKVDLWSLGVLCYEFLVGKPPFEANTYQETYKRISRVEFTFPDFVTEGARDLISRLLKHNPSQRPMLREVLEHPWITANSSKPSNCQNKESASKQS
As to the kind of experiment: Inhibition of AuroraA (unknown origin).

A short description of series [12]: Inhibition of p70S6K (unknown origin). Set-up: species or system Homo sapiens.
Series [13] has as its target T4, Serine/threonine-protein kinase 4 (Homo sapiens, UniProt Q13043).
T4 sequence (Q13043 whole entry): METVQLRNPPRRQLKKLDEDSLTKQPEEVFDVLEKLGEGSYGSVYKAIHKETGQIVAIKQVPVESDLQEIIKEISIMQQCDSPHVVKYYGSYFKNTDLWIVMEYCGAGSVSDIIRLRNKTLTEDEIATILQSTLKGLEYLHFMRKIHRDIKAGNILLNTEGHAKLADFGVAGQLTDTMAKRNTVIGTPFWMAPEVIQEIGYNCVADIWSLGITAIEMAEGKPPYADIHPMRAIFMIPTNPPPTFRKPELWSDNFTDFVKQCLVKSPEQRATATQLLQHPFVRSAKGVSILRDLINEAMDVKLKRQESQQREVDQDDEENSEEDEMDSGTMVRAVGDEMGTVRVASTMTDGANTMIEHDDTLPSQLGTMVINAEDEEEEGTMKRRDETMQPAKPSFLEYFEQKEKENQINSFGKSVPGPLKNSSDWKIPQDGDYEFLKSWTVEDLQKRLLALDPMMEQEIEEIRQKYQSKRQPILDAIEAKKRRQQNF
As to the kind of experiment: Inhibition of STK4 (unknown origin).

Series [14] has as its target Tyrosine-protein kinase Lck (Homo sapiens, UniProt P06239). As to the kind of experiment: Inhibition of LCK (unknown origin).
Series [15] addresses T5, Receptor-type tyrosine-protein kinase FLT3 (Homo sapiens, UniProt P36888).
T5 sequence (P36888 whole entry): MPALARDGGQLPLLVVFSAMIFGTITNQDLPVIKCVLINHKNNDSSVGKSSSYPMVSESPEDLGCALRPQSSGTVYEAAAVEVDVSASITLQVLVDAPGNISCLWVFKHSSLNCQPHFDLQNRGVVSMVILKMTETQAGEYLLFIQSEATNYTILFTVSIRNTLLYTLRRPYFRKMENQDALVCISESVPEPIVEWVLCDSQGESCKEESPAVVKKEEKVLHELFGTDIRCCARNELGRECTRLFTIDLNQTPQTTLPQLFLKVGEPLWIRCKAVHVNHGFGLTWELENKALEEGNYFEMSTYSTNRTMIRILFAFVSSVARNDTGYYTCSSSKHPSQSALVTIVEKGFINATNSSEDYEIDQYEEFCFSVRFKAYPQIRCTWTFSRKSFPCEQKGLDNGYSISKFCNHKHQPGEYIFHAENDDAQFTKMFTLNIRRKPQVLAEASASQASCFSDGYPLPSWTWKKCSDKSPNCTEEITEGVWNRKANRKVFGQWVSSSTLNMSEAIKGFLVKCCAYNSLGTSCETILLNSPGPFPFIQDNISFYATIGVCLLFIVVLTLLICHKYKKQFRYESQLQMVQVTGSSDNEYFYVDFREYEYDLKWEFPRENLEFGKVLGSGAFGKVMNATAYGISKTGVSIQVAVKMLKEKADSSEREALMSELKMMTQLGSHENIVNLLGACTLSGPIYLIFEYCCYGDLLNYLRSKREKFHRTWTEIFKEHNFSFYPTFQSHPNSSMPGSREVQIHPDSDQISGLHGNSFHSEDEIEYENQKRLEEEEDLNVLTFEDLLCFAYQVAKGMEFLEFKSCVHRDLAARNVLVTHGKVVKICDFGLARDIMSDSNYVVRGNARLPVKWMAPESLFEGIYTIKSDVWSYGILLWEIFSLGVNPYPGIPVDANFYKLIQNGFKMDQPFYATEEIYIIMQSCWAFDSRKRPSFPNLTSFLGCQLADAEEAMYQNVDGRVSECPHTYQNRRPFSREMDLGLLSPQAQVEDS
As to the kind of experiment: Inhibition of FLT3 (unknown origin).

The target in series [16] is T6, Interleukin-1 receptor-associated kinase 4 (Homo sapiens, UniProt Q9NWZ3).
T6 sequence (Q9NWZ3 whole entry): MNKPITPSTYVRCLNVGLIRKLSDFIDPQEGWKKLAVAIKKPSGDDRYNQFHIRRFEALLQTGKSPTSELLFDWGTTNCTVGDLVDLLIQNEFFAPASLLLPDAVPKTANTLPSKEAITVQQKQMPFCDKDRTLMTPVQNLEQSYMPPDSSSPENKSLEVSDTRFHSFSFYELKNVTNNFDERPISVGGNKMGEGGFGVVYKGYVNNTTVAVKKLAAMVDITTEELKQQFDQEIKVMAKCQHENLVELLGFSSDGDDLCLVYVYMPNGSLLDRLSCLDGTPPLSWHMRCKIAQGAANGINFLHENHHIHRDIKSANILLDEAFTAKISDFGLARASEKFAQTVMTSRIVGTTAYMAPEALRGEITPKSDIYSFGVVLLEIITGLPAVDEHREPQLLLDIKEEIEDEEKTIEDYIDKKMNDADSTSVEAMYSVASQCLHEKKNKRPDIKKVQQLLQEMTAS
Nature of the series: Inhibition of IRAK4 (unknown origin).

For series [17], the target named is Vascular endothelial growth factor receptor 2 (Homo sapiens, UniProt P35968). Nature of the series: Inhibition of KDR (unknown origin).

Chain of Tyrosine-protein kinase JAK1 (P23458 whole entry, the tested form may be a part): as the sequence (P23458 whole entry, the tested form may be a part) above
T1 sequence (P23458 whole entry, one chain of several): as the sequence (P23458 whole entry, the tested form may be a part) above
Chain of Tyrosine-protein kinase Lck (P06239 whole entry): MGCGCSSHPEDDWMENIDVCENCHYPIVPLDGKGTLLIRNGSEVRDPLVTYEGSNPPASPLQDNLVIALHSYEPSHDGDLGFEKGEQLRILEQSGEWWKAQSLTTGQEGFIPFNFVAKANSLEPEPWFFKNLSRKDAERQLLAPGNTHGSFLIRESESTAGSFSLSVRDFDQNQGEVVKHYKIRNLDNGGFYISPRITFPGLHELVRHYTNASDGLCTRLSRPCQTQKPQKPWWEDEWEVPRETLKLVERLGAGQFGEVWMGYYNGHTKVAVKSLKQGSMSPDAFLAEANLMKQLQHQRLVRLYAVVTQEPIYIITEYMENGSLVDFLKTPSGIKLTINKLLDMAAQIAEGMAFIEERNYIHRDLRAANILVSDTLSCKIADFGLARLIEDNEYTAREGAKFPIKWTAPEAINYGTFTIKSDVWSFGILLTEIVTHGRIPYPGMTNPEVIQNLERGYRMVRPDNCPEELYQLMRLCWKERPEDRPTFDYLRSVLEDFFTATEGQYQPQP
Chain of Glycogen synthase kinase-3 beta (P49841 whole entry): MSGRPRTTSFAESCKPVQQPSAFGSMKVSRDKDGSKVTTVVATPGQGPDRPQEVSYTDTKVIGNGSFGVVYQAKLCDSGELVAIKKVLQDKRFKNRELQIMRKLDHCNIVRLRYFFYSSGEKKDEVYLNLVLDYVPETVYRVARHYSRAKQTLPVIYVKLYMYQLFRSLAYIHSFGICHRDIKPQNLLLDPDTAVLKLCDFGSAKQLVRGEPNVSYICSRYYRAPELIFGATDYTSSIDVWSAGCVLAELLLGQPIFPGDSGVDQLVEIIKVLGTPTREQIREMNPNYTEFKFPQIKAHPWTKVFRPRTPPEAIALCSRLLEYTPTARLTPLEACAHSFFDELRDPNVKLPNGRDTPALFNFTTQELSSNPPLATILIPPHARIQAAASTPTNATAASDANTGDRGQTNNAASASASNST

For `COc1cccc(Nc2cc(Nc3ccccc3Cl)c(C(N)=O)cn2)n1`, the IC50 in [1] was determined as 103 nM; in series [2] it was 169 nM; in series [3] it was 271 nM; in [4], 76 nM; in series [5], 89 nM; in series [6], 77 nM. In series [7], the IC50 was determined as 2170 nM.

The compound `C[C@H]1CN(C(=O)CC#N)[C@]12CCN(c1ncnc3[nH]ccc13)C2` [DELGOCITINIB] displayed a microsomal CLint in series [8] of less than 25 µL/min/mg.

For the compound `CCOC(=O)Oc1cccc(Nc2cc(Nc3ccccc3Cl)c(C(N)=O)cn2)n1`, the IC50 is 131 nM in series [1]; 116 nM in series [2]; 71 nM in [3]; 52 nM in series [4]; 76 nM in series [5]; 59 nM in series [6]. In addition, the IC50 in series [7] is greater than 30000 nM.

In the case of `Cc1cccc(Nc2cc(Nc3ccccc3Cl)c(C(N)=O)cn2)n1`, the pKa in series [9] came to 6.2. Besides, in series [6], the IC50 stood at 60 nM.

On to `NC(=O)c1cnc(Nc2ccc(O)cn2)cc1Nc1ccccc1Cl`, for which the IC50 in series [1] was 14 nM; in series [2] it was 218 nM; in series [3], 290 nM; in series [4], 20 nM; in [5], 20 nM; in [7] it was 525 nM.

For the compound `NC(=O)c1cnc(Nc2cccc(O)n2)cc1Nc1ccccc1Cl`, the IC50 was greater than 2500 nM in series [10]; greater than 2500 nM in [11]; greater than 2500 nM in series [12]; 3270 nM in series [1]; greater than 10000 nM in [2]; greater than 10000 nM in series [3]. For the same compound, the 50% inhibitory concentration (IC50) is greater than 2500 nM in series [13]; greater than 2500 nM in series [14]; 3150 nM in series [4]; 4560 nM in series [5]; greater than 2500 nM in [15]; 2090 nM in series [6]. Moreover, the results for the IC50 in series [16], in [7] and in series [17] were greater than 2500 nM, greater than 30000 nM and greater than 2500 nM, respectively.

Broadly, the IC50 is the concentration that gives 50% inhibition. As a reminder, the microsomal CLint is the rate of metabolic loss divided by the concentration. In general, pKa refers to the negative logarithm of the acid dissociation constant. A low value points to a group that gives up its proton readily.
